Measurements: US20240316045A1, “CYCLOPROPYLAMIDE COMPOUNDS AGAINST PARASITES IN FISH” (Intervet Inc., priority 2021, published 2024)
Read-outs that look alike come from different tables or passages of the source.

How the values were obtained:
[1] = tested on: Mobile stages of sea lice (pre-adults, adults of Lepeophtheirus salmonis); assay: Adult sea lice contact assay; conditions: read-out: EC50 (sea lice inhibition, dead+damaged)
Protocol: Mobile stages of sea lice (i.e., pre-adults, adults of Lepeophtheirus salmonis) were exposed to seawater spiked with declining concentrations of a test compound (dissolved in a PEG sea-water mixture). Sea lice inhibition (% of dead+damaged sea lice) was assessed after approximately 1 and 24 hours of continuous exposure in comparison to a negative (solvent) control group.

Lepeophtheirus salmonis = assay: Salmon in vivo efficacy trial against sea lice, gavage administration; conditions: in Salmo salar
Protocol: Salmon (Salmo salar) were treated once orally by gavage at a dose of 5 mg/kg bodyweight per fish (Day 0). As formulation DMSO 5%/fish oil 95% was used. Salmon of the negative control group received only the excipients of the formulation.
The fish were infested with Lepeophtheirus salmonis copepodids twice before treatment (i.e., around day −28 and day −3) and once after treatment (i.e., day 17). […]
Efficacy is expressed as a % reduction of sea lice in treated groups versus a control group, using the Abbott's formula.

[2] = tested on: Copepodids (juvenile sea lice stage of Lepeophtheirus salmonis); assay: Juvenile sea lice contact assay; conditions: read-out: Sea lice inhibition (% of dead+damaged copepodids); for inhibition at 0.1 µM: test concentration 100 nM
Protocol: Copepodids (juvenile sea lice stage of Lepeophtheirus salmonis) were exposed to seawater spiked with declining concentrations of a test compound (dissolved in a DMSO sea-water mixture). Sea lice inhibition (% of dead+damaged copepodids) was assessed after approximately 24 hours of continuous exposure. The vitality of used parasites was confirmed in a negative (solvent) control group.

[3] = pre-adult/adult L. salmonis, assessed after approx. 1 and 24 hours, time of EC50 not stated
[4] = 168 h, read-out: therapeutic efficacy against (pre-)adult sea lice (% reduction vs control, Abbott), single oral gavage 5 mg/kg, count at day 7, day -28 infestation
[5] = 672 h, read-out: therapeutic efficacy against juvenile sea lice (% reduction vs control, Abbott), single oral gavage 5 mg/kg, count around day 28, day -3 infestation
[6] = approx. 24 hours continuous exposure
[7] = test concentration 10 nM, approx. 24 hours continuous exposure

| SMILES | EC50 [1, 3] [nM] | inhibition in vivo at 5 mg/kg (Lepeophtheirus salmonis; [4]) [%] | inhibition in vivo at 5 mg/kg (Lepeophtheirus salmonis; [5]) [%] | inhibition at 0.1 µM [2, 6] [%] | inhibition at 0.01 µM [2, 7] [%] | other results |
| --- | --- | --- | --- | --- | --- | --- |
| O=C(Nc1ccncn1)c1cc(NC(=O)[C@H]2[C@H](c3cc(Cl)cc(Cl)c3)C2(Cl)Cl)ccc1Cl [Compound 1039] | 1 to 25 | 80 | 80 | 100 | – | – |
| O=C(Nc1ccccc1)c1cc(NC(=O)[C@H]2[C@H](c3cc(Cl)cc(Cl)c3)C2(Cl)Cl)ccc1Cl [Compound 1099] | 1 to 10 | 80 | 100 | – | 100 | – |
| Cc1ccccc1NC(=O)c1cc(NC(=O)[C@H]2[C@H](c3cc(Cl)cc(Cl)c3)C2(Cl)Cl)ccc1Cl [Compound 1100] | 1 to 10 | 100 | 100 | – | 100 | – |
| Cc1ccc(NC(=O)[C@H]2[C@H](c3cc(Cl)cc(Cl)c3)C2(Cl)Cl)cc1C(=O)Nc1ccc(F)cc1 [Compound 1101] | 1 to 10 | – | – | 100 | – | – |
| Cc1c(F)cc(NC(=O)[C@H]2[C@H](c3cc(Cl)cc(Cl)c3)C2(Cl)Cl)cc1C(=O)Nc1ncc(F)cc1F [Compound 1368] | 1 to 10 | 80 | 100 | – | 100 | – |
| O=C(Nc1c(F)cccc1F)c1cc(NC(=O)[C@H]2[C@H](c3cc(Cl)cc(Cl)c3)C2(Cl)Cl)ccc1Cl [Compound 1370] | 1 to 10 | 100 | 100 | – | 100 | – |
| O=C(Nc1cncnc1)c1cc(NC(=O)[C@H]2[C@H](c3cc(Cl)cc(Cl)c3)C2(Cl)Cl)ccc1Cl [Compound 1371] | 1 to 10 | 100 | 100 | – | 100 | – |
| O=C(Nc1ncc(F)cc1F)c1cc(NC(=O)[C@H]2[C@H](c3cc(Cl)cc(Cl)c3)C2(Cl)Cl)ccc1F [Compound 1376] | ≤ 1 | 100 | 100 | – | – | inhibition at 10 pM ([2]; test concentration 0.01 nM, approx. 24 hours continuous exposure): 100%; inhibition at 0.0001 µM ([2]; test concentration 0.1 nM, approx. 24 hours continuous exposure): 100% |
| O=C(Nc1ncc(F)cc1F)c1cc(NC(=O)[C@H]2[C@H](c3cc(Cl)cc(Cl)c3)C2(Cl)Cl)cc(F)c1Cl [Compound 1378] | 1 to 25 | 100 | 100 | – | 100 | – |
| O=C(Nc1ncc(F)cc1F)c1cccc(NC(=O)[C@H]2[C@H](c3cc(Cl)cc(Cl)c3)C2(Cl)Cl)c1F [Compound 1379] | 1 to 25 | – | – | 100 | – | – |
| O=C(Nc1ncc(F)cc1F)c1cc(NC(=O)C2C(c3cc(Cl)c(F)c(Cl)c3)C2(Cl)Cl)ccc1Cl (stereo not shown) [Compound 1383] | 1 to 10 | – | – | – | 100 | – |
| O=C(Nc1ncc(F)cc1F)c1cc(NC(=O)C2C(c3cc(C(F)(F)F)cc(C(F)(F)F)c3)C2(Cl)Cl)ccc1Cl (stereo not shown) [Compound 1385] | 1 to 10 | – | – | – | 100 | – |
| O=C(Nc1ccc(F)cc1F)c1cc(NC(=O)C2C(c3cc(C(F)(F)F)cc(C(F)(F)F)c3)C2(Cl)Cl)ccc1F (stereo not shown) [Compound 1387] | 1 to 10 | – | – | 100 | – | – |
| O=C(Nc1ncc(F)cc1F)c1cc(NC(=O)C2C(c3cc(C(F)(F)F)cc(C(F)(F)F)c3)C2(Cl)Cl)cc(F)c1F (stereo not shown) [Compound 1388] | 1 to 10 | – | – | 100 | – | – |
| O=C(Nc1ncc(F)cc1F)c1cc(NC(=O)C2C(c3cc(Cl)cc(C(F)(F)F)c3)C2(Cl)Cl)ccc1Cl (stereo not shown) [Compound 1389] | ≤ 1 | – | – | – | 100 | – |
| O=C(Nc1ncc(F)cc1F)c1cc(NC(=O)C2C(c3cc(Cl)cc(Cl)c3)C2(Cl)Cl)cc(F)c1F (stereo not shown) [Compound 1391] | 1 to 10 | – | – | – | 80 | – |
| O=C(Nc1ncc(F)cc1F)c1cc(NC(=O)[C@H]2[C@H](c3cc(F)c(F)c(F)c3)C2(Cl)Cl)ccc1Cl [Compound 1392] | – | – | – | – | – | EC50 [1]: ≤ 1 nM; inhibition in vivo at 5 mg/kg (Lepeophtheirus salmonis; po, 168 h, read-out: therapeutic efficacy against (pre-)adult sea lice (% reduction vs control, Abbott)): 100%; inhibition in vivo at 5 mg/kg (Lepeophtheirus salmonis; po, 672 h, read-out: therapeutic efficacy against juvenile sea lice (% reduction vs control, Abbott)): 80%; inhibition at 0.01 µM ([2]; 24 h): 100% |
| O=C(Nc1ncc(F)cc1F)c1cc(NC(=O)[C@H]2[C@H](c3cc(F)c(F)c(F)c3)C2(Cl)Cl)ccc1F [Compound 1393] | ≤ 1 | 100 | 80 | – | 100 | – |
| O=C(Nc1ncc(F)cc1F)c1c(F)ccc(NC(=O)[C@H]2[C@H](c3cc(Cl)cc(Cl)c3)C2(Cl)Cl)c1F [Compound 1394] | 1 to 10 | 100 | 100 | 100 | – | – |
